Test results as given in patent US20230331731A1, “CRYSTAL FORM OF PYRROLO HETEROCYCLIC DERIVATIVE AND PREPARATION METHOD THEREFOR” (Jiangsu Hengrui Pharmaceuticals Co., Ltd., priority 2020, published 2023).

Key:
Assay type in all cases: physicochemical
[1] = DVS (dynamic vapor sorption) analysis
Experimental: DVS refers to dynamic vapor sorption: The measurement was conducted on SMS DVS Advantage; at 25° C., the humidity was changed as follows: 50%-95%-0%-95%-50%, in steps of 10% (5% for the last step) (specific humidity ranges are shown in corresponding graphs, and those listed here were used in most cases); the criterion was dm/dt being no greater than 0.002%.

[2] = Influencing factor stability study
[3] = Long-term/accelerated stability study
Experimental: 1. The hydrobromide in crystal form α was left to stand under 25° C., 60% RH conditions and 40° C., 75% RH conditions to investigate its stability.
4. The fumarate in crystal form II was subjected to 6-month long-term (25° C., 60% RH) and accelerated (40° C., 75% RH) stability studies.

[4] = 40° C., open, 30 days (5/10/30-day study)
[5] = 60° C., open, 30 days (5/10/30-day study)
[6] = 4500 Lux, open, 30 days (5/10/30-day study)
[7] = RH 75%, open, 30 days (5/10/30-day study)

Compound: Cn1nccc1Nc1nccc(-c2cc3n(c2)C(=O)N([C@H](CO)c2cccc(Cl)c2)C3)n1.O=C(O)/C=C/C(=O)O [Fumarate in crystal form II]
- moisture-absorption weight gain ([1]; accelerated conditions, 70% RH): about 2.75%
- moisture-absorption weight gain ([1]; extreme conditions, 90% RH): about 3.85%
- moisture-absorption weight gain ([1]; normal conditions, 25° C., 60% RH): about 2.38%
- crystal form after DVS analysis ([1]; re-examined after DVS): did not change
- Color and appearance ([2]; 40° C., open, 5 days): White solid
- Purity ([2]; 40° C., open, 5 days): 99.6%
- Color and appearance ([2]; 40° C., open, 10 days): White solid
- Purity ([2]; 40° C., open, 10 days): 99.5%
- Color and appearance [2, 4]: White solid
- Purity [2, 4]: 99.2%
- Color and appearance ([2]; 60° C., open, 5 days): White solid
- Purity ([2]; 60° C., open, 5 days): 99.5%
- Color and appearance ([2]; 60° C., open, 10 days): White solid
- Purity ([2]; 60° C., open, 10 days): 99.5%
- Color and appearance [2, 5]: White solid
- Purity [2, 5]: 98.0%
- Color and appearance ([2]; 4500 Lux, open, 5 days): White solid
- Purity ([2]; 4500 Lux, open, 5 days): 99.6%
- Color and appearance ([2]; 4500 Lux, open, 10 days): White solid
- Purity ([2]; 4500 Lux, open, 10 days): 99.6%
- Color and appearance [2, 6]: White solid
- Purity [2, 6]: 98.4%
- Color and appearance ([2]; Initial, 0 days (30-day study)): White solid
- Purity ([2]; Initial, 0 days (30-day study)): 99.7%
- Color and appearance ([2]; RH 75%, open, 5 days): White solid
- Purity ([2]; RH 75%, open, 5 days): 99.7%
- Weight gain ([2]; RH 75%, open, 5 days): 0.54%
- Color and appearance ([2]; RH 75%, open, 10 days): White solid
- Purity ([2]; RH 75%, open, 10 days): 99.7%
- Weight gain ([2]; RH 75%, open, 10 days): 1.03%
- Weight gain ([2]; RH 75%, open, 30 days): 1.42%
- Color and appearance [2, 7]: White solid
- Purity [2, 7]: 99.7%
- Color and appearance ([2]; RH 90%, open, 5 days): White solid
- Purity ([2]; RH 90%, open, 5 days): 99.7%
- Weight gain ([2]; RH 90%, open, 5 days): 1.16%
- Color and appearance ([2]; RH 90%, open, 10 days): White solid
- Purity ([2]; RH 90%, open, 10 days): 99.7%
- Weight gain ([2]; RH 90%, open, 10 days): 2.77%
- Color and appearance ([2]; RH 90%, open, 30 days): White solid
- Purity ([2]; RH 90%, open, 30 days): 99.7%
- Weight gain ([2]; RH 90%, open, 30 days): 3.97%
- physical and chemical stability (conclusion) ([2]; high-temperature conditions (40° C. and 60° C.) and high-humidity conditions (75% and 92.5%), 30 days): relatively good physical and chemical stability
- Purity, 1 month ([3]; 25° C., 60%RH): 99.7%
- Purity, 2 months ([3]; 25° C., 60%RH): 99.7%
- Purity, 3 months ([3]; 25° C., 60%RH): 99.7%
- Purity, 6 months ([3]; 25° C., 60%RH, 6 months): 99.7%
- Purity, 1 month ([3]; 40° C., 75%RH): 99.7%
- Purity, 2 months ([3]; 40° C., 75%RH): 99.7%
- Purity, 3 months ([3]; 40° C., 75%RH): 99.7%
- Purity, 6 months ([3]; 40° C., 75%RH, 6 months): 99.7%
- Purity, Initial ([3]; Initial): 99.7%
- physical and chemical stability (conclusion) ([3]; long-term (25° C., 60% RH) and accelerated (40° C., 75% RH) conditions, 6 months): good physical and chemical stability
